From patent US20070032453A1, “ADJUVANT CHEMOTHERAPY FOR ANAPLASTIC GLIOMAS” (Oklahoma Medical Research Foundation, priority 2005, published 2007)
“Also recorded” adds a separate entry of the source.

Experiments:
[1] = test system: C6 gliomas; test: C6 glioma growth in rats monitored by T2-weighted MRI (tumor volumes, ImageJ); type: in vivo, rat
Protocol: (§1) Cells injection. Three-month-old male Fischer 344 rats (250-350 g) were fed a choline-deficient diet. Each animal was anesthetized (3% isoflurane at 2.5 L/mn oxygen) and placed on a stereotaxic device (Stoelting, USA). The skin of the head was cleaned and incised. A hole was drilled through the skull 2 mm anterior and 2 mm lateral to the bregma, in the right-hand side of the skull. C6, 9L/LacZ or F98 cells (10^6 in 10 μL cell culture media) in a ultra-low gelling temperature agarose are injected in the cortex at a 3 mm-depth at a rate of 2 μL/mn. A waiting time of 2 min was implemented following injection and bone wax was put in the burr-hole to prevent any reflux. The wound was sutured and covered with surgical glue. The surgery was performed in sterile conditions. The syringes containing the C6, 9L/LacZ or F98 cells are kept at 37° C. until the moment of use.
PBN treatment. […] The treatment was continuous and was started at different time points. […] Some rats were not treated and served as controls (n=5).
MRI experiments. MRI experiments were performed on a 7 Tesla-30 cm horizontal bore magnet (Bruker BioSpin MRI Gmbh, Germany) at day 6-10 after the cells were injected and then every 2-3 days until the death of the rat. The animal was anesthetized (1.5% isoflurane at 1.5 L/mn oxygen) and placed in a MR probe (Bruker BioSpin MRI Gmbh, Germany). A head coil (Bruker BioSpin MRI Gmbh, Germany) was put on its head and the brain was localized.
(§2) Tumor growth monitoring. T1/T2-weighted images were obtained by a double-echo multi-slice spin echo method. Twenty-four axial slices of 1 mm thickness with an interslice distance of 1 mm were taken with a repetition time of 2369.64 ms and echo times of 17.41 ms and 63.85 ms for an acquisition time of 20 min. Tumor volumes were determined with the software ImageJ 1.32j (NIH, USA).
A T2-weighted morphological MRI method was used.

[2] = test system: C6 gliomas; test: MR angiography of C6 gliomas (angiogenesis, arterial blood volumes); type: in vivo, rat
Protocol: Angiography. Coronal slices are acquired by a FLASH (fast low angle shot) method with a volume of interest of 2.7×1.7×1.2 cm^3, an echo time of 2.3 ms, a repetition time of 25 ms and a flip angle of 25° for an acquisition time of 27 min. A MIP (maximum intensity projection) technique was then applied to the data to obtain a 3D-angiography. Angiography was used to visualize new blood vessel formation, i.e., angiogenesis.
The method used was quantitative analysis (using a Mathematica-based program developed in our laboratory) of arterial signal intensities from in vivo MR angiography data. Glioma region arterial blood volumes were compared to blood volumes in the contralateral control cerebral hemisphere.

[3] = test system: F98 gliomas; test: F98 glioma growth in rats monitored by T2-weighted MRI; type: in vivo, rat; settings: PBN five days prior to intracerebral cell implantation
Protocol: as §1, §2

[4] = test system: C6 gliomas; test: Image-guided MR spectroscopy, metabolite ratios in C6 glioma; type: in vivo, rat; settings: C6 glioma rats treated with PBN
Protocol: MRS experiments. Water suppression was performed by a CHESS (chemical shift suppression) method. A spectrum was acquired in a […] voxel in the tumor region and in the contralateral control side of the brain, by using PRESS (point resolved spectroscopy) with a repetition time of 3000 ms, an echo time of 21.34 ms for an acquisition time of 13 min. An outer volume suppression tool was used to get rid of the 5 mm thick surrounding signal around the voxel. The metabolite peaks were assigned as follows, based on previous literature (Fan et al., 2004; Griffin et al., 2003): NAA at 2.02 ppm, Cr at 3.03 ppm, Cho at 3.25 ppm and mobile lipids at 1.33 ppm (methylene group) and 0.9 ppm (methyl group). Peak areas were calculated in reference to Cr peak and relative ratios were determined: NAA/Cho, NAA/Cr, Cho/Cr and Lipids/Cr. A decrease in NAA levels and an increase in lipids are indicative of the presence of a glioma (Ishimaru et al., 2001).
MR spectral peak areas were measured using the Bruker XWIN NMR peak intragration software package.

[5] = test system: C6 gliomas; test: Histology (H&E) of C6 glioma rat brain; type: in vivo; settings: C6 rat glioma treated with PBN
Description: Note that PBN-treated C6 glioma rat brain has neuronal cells that appear similar to control rat brain. Untreated C6 glioma depicts malignant cells that are atypical in appearance (grade II to III) with few mitotic and apoptotic figures being present.
Conclusion. […] The malignant cells in the large neoplastic mass (FIG. 8B) were moderately atypical in appearance (grade II to III) with few mitotic and apoptotic figures being present. Large central areas of the mass […]) were also necrotic.

[6] = test system: C6 gliomas; test: Survival of rats with intracerebral C6 glioma; type: in vivo, rat
Description: FIG. 11—Anti-Glioma Therapy/Percent Survival. […] Based on survival data obtained from FIG. 10.

[7] = test system: HIF-1α; test: IGF-1 induced HIF-1α expression in HCT-116 cells; type: cell-based; settings: HCT116 human colon cancer cells, 20% O2
Description: (§3) The band densities of HIF-1α were normalized by the bands of CoCl2 which was used as the positive control.
(§4) HIF-1α is a major transactivation factor which is central to the induction of VEGF as well as iNOS and many other genes very important in the development of cancer. VEGF is very important in angiogenesis essential for tumor growth and is a major target of several anti-cancer companies.

[8] = test system: HIF-1α; test: IGF-1 induced HIF-1α expression in Hepa 1-6 cells; type: cell-based; settings: mouse hepatocellular carcinoma cell line (Hepa 1-6)
Description: as §3, §4

[9] = biological target: c-MET (Homo sapiens, UniProt P08581); test: c-MET inhibition
[10] = cited from earlier work
[11] = PBN started 5 days before surgery

c-MET, sequence (P08581 25-1390): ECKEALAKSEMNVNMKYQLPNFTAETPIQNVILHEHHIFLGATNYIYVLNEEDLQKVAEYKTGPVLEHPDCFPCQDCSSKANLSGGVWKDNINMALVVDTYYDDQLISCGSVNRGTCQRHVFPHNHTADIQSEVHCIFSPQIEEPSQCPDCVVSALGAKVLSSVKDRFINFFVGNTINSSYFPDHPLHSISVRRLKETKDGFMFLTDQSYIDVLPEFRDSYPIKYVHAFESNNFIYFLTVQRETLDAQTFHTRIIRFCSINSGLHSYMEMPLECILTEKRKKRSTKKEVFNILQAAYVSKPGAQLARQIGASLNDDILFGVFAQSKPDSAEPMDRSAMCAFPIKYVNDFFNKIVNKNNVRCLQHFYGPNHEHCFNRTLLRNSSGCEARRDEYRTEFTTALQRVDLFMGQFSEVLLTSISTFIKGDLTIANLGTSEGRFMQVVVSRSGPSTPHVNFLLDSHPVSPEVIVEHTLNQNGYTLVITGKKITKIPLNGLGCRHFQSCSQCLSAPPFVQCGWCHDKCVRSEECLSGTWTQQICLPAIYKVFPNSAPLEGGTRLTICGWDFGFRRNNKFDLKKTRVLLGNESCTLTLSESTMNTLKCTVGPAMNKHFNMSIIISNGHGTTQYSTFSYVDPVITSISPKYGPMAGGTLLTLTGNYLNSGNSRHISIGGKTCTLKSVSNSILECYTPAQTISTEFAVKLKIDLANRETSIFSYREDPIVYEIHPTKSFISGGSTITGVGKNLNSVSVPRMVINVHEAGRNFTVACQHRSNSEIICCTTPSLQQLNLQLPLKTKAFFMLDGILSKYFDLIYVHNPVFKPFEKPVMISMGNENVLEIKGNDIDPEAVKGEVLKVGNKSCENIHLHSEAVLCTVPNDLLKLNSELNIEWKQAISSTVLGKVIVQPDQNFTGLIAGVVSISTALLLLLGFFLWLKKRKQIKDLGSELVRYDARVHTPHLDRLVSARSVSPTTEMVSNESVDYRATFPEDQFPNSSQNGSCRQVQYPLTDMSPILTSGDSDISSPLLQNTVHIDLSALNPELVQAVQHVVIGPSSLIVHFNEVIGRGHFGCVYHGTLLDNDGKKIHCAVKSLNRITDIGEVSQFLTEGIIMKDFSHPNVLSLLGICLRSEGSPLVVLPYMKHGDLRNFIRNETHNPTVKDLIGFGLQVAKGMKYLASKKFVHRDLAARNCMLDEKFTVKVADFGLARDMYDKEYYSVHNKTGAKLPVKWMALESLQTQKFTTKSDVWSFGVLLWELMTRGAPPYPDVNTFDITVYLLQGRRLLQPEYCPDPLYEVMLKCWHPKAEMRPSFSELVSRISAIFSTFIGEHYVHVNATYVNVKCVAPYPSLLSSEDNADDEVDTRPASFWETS

## CC(C)(C)[N+]([O-])=Cc1ccc(O)cc1 [4-hydroxy-PBN, 4-hydroxyphenyl N-tert-butylnitrone]
[1]; 75 mg/kg/day in drinking water from 5 days prior to implantation, n=5
  animals with suppressed and recessed tumor growth: 40%
[2]; C6 gliomas, morphology and angiography data
  animals with decrease in tumor growth and angiogenesis: 2 of 5

## CC(C)(C)[N+]([O-])=Cc1ccccc1 [PBN, phenyl N-tert-butyl nitrone]
[1]; PBN 75 mg/kg/day in drinking water started on the day of surgery or 5 days after
  doubling time: 2.3 to 2.4 days
[1]; [11]
  doubling time: 4.1 days
  maximum tumor volume: 50 mm^3
[1]; PBN started on the day of surgery or 5 days after
  tumor course after maximal volume: the tumor starts to regress until it almost completely disappears
[1]; PBN starting 14 days after cell implantation, tumors >50 mm3
  animals with recession of tumor / eradication of further tumor formation: 40%
[1]; continuous PBN starting 5 days prior to cell implantation, n=5
  glioma growth outcome: recession to no tumor in all animals studied; also recorded: either not develop or recede once intially formed in all rats
[3]
  glioma development: not develop in all rats
[2]; C6 glioma, PBN 5 days prior to cell implantation, quantitative MR angiography
  normalized tumor arterial blood volumes: suppression and/or a decrease in blood volumes
[2]; C6 gliomas, Example 2, qualitative MR angiography
  changes in angiogenesis (angiograms): did not seem to induce changes in angiogenesis
[4]
  NAA levels compared to choline (Cho) levels: increase to normal levels
  lipid levels compared to creatine (Cr) levels: decrease to normal levels
[5]
  histology (H&E), tumor cells: no evidence of tumor cells
[6]; PBN 5 days prior to C6 cell implantation
  rats surviving longer than 40 days (study end-point): Eighty
[6]; PBN 14 days after C6 cell implantation
  rats surviving longer than 40 days: 40%
[7]
  induction of HIF-1α: inhibits the induction of HIF-1α
[8]
  induction of HIF-1α: inhibits the induction of HIF-1α
[9]
  c-MET inhibition: inhibits c-MET
[10]; rat, in vivo
  tissue distribution: readily and rapidly distributed almost equally to all tissues
[10]; rats
  half-life: about 132 minutes
